Measured values: US12162893B2 (Erasca, Inc., priority 2020, dated 2024)

Each compound was assayed against T1, mutant G12C K-RAS (Homo sapiens, UniProt P01116, G12C) (assay: covalent adduct formation (CAF) with mutant G12C K-RAS). Details: Table 1, Pyrimidone Core-Morpholine Unsubstituted; after 60 minutes at 10 micromolar.
T1 construct: made in house; host or cells: E. coli BL21
Format: binding
Set-up: CAF: unit not given here
Description: Embodiments disclosed herein are further illustrated by the following examples in Tables 1-4 and the Examples hereinbelow. The Tables indicate the compound number, structure, the observed mass spectral molecular weight peak, and covalent adduct formation (CAF) with a mutant G12C K-RAS after 60 minutes at a concentration of 10 micromolar.

% CAF (60 min)	SMILES
0%	C=CC(=O)N1C[C@H](C)N(c2nc(=O)n3c4c(c(-c5cccc6cccc(Cl)c56)ccc24)OCC3)C[C@H]1C [Example 15, 7-((2S,5R)-4-acryloyl-2,5-dimethylpiperazin-1-yl)-10-(8-chloronaphthalen-1-yl)-2H-[1,4]oxazino[2,3,4-ij]quinazolin-5(3H)-one]
87.6%	C=CC(=O)N1CCN(c2nc(=O)n3c4c(c(-c5c(O)cccc5F)c(Cl)cc24)OCC3)CC1 [Example 5, (S)-7-(4-acryloylpiperazin-1-yl)-9-chloro-10-(2-fluoro-6-hydroxyphenyl)-2H-[1,4]oxazino[2,3,4-ij]quinazolin-5(3H)-one]

Same assay, conditions: Table 2, Pyrimidone Core-Morpholine Substituted; after 60 minutes at 10 micromolar

% CAF (60 min)	SMILES
0%	C=CC(=O)N1CCN(c2nc(=O)n3c4c(c(-c5c(O)cccc5F)c(Cl)cc24)OC[C@H]3CO)[C@@H](C)C1 [Example 23, (3R,10R)-7-((S)-4-acryloyl-2-methylpiperazin-1-yl)-9-chloro-10-(2-fluoro-6-hydroxyphenyl)-3-(hydroxymethyl)-2H-[1,4]oxazino[2,3,4-ij]quinazolin-5(3H)-one]
87.3%	C=CC(=O)N1C[C@H](C)N(c2nc(=O)n3c4c(c(-c5c(O)cccc5F)c(Cl)cc24)OC[C@H]3CO)C[C@H]1C [Example 33, (3R,10S)-7-((2S,5R)-4-acryloyl-2,5-dimethylpiperazin-1-yl)-9-chloro-1-(2-fluoro-6-hydroxyphenyl)-3-(hydroxymethyl)-2H-[1,4]oxazino[2,3,4-ij]quinazolin-5(3H)-one]

Same assay, conditions: Table 3, Pyridone Core-Morpholine Unsubstituted; after 60 minutes at 10 micromolar

CAF	SMILES
4.2	C=CC(=O)N1C[C@H](C)N(c2cc(=O)n3c4c(c(-c5ccc(F)cc5F)c(Cl)cc24)OCC3)C[C@H]1C [Example 44, 7-((2S,5R)-4-acryloyl-2,5-dimethylpiperazin-1-yl)-9-chloro-10-(2,4-difluorophenyl)-2H-[1,4]oxazino[2,3,4-ij]quinolin-5(3H)-one]
49.1	C=CC(=O)N1CCN(c2c(C#N)c(=O)n3c4c(c(-c5c(O)cccc5F)c(Cl)cc24)OCC3)[C@@H](C)C1 [Example 38, 7-((S)-4-acryloyl-2-methylpiperazin-1-yl)-9-chloro-10-(2-fluoro-6-hydroxyphenyl)-5-oxo-3,5-dihydro-2H-[1,4]oxazino[2,3,4-ij]quinoline-6-carbonitrile]

Same assay, conditions: Table 6; 10 μM, 1 h

SMILES	% CAF @ 10 μM,1 h
C=CC(=O)N1C[C@H](C)N(c2nc(=O)n3c4c(c(-c5ccc(F)cc5F)c(Cl)cc24)OC[C@@H]3Cn2ccnc2)C[C@H]1C [Example 238, (3S)-3-((1H-imidazol-1-yl)methyl)-7-((2S,5R)-4-acryloyl-2,5-dimethylpiperazin-1-yl)-9-chloro-10-(2,4-difluorophenyl)-2H-[1,4]oxazino[2,3,4-ij]quinazolin-5(3H)-one]	79.4%
C=CC(=O)N1C[C@H](C)N(c2nc(=O)n3c4c(c(-c5ccc(F)cc5F)c(Cl)cc24)OC[C@H]3CCCN2CCC(F)(F)C2)C[C@H]1C [Example 271, (3R)-7-((2S,5R)-4-acryloyl-2,5-dimethylpiperazin-1-yl)-9-chloro-10-(2,4-difluorophenyl)-3-(3-(3,3-difluoropyrrolidin-1-yl)propyl)-2,3-dihydro-5H-[1,4]oxazino[2,3,4-ij]quinazolin-5-one]	93.6%
C=CC(=O)N1C[C@H](C)N(c2nc(=O)n3c4c(c(-c5ccc(F)cc5F)c(Cl)cc24)OC[C@H]3CCCN2CC(C(=O)NC3CC3)C2)C[C@H]1C [Example 273, 1-(3-((3R)-7-((2S,5R)-4-acryloyl-2,5-dimethylpiperazin-1-yl)-9-chloro-10-(2,4-difluorophenyl)-5-oxo-2,3-dihydro-5H-[1,4]oxazino[2,3,4-ij]quinazolin-3-yl)propyl)-N-cyclopropylazetidine-3-carboxamide]	71.8%
C=CC(=O)N1C[C@H](C)N(c2nc(=O)n3c4c(c(-c5cccc6ccccc56)c(Cl)cc24)OC[C@H]3CCCN2C[C@@H]3C[C@H]2CO3)C[C@H]1C (atropisomer, axis not shown) [Example 322, (3R,10S)-3-(3-((1S,4S)-2-oxa-5-azabicyclo[2.2.1]heptan-5-yl)propyl)-7-((2S,5R)-4-acryloyl-2,5-dimethylpiperazin-1-yl)-9-chloro-10-(naphthalen-1-yl)-2,3-dihydro-5H-[1,4]oxazino[2,3,4-ij]quinazolin-5-one]	78.5%
C=CC(=O)N1C[C@H](C)N(c2nc(=O)n3c4c(c(-c5ccc(F)cc5F)c(Cl)cc24)OC[C@H]3CCCN2CC3CCC(C2)O3)C[C@H]1C [Example 312, (3R)-3-(3-(8-oxa-3-azabicyclo[3.2.1]octan-3-yl)propyl)-7-((2S,5R)-4-acryloyl-2,5-dimethylpiperazin-1-yl)-9-chloro-10-(2,4-difluorophenyl)-2,3-dihydro-5H-[1,4]oxazino[2,3,4-ij]quinazolin-5-one]	68.2%
C=CC(=O)N1C[C@H](C)N(c2nc(=O)n3c4c(c(-c5c(O)cccc5F)c(Cl)cc24)OC[C@@H]3CCCN2CCOCC2)C[C@H]1C (atropisomer, axis not shown) [Example 225, (3S,10R)-7-((2S,5R)-4-acryloyl-2,5-dimethylpiperazin-1-yl)-9-chloro-10-(2-fluoro-6-hydroxyphenyl)-3-(3-morpholinopropyl)-2,3-dihydro-5H-[1,4]oxazino[2,3,4-ij]quinazolin-5-one]	4.4%
C=CC(=O)N1C[C@H](C)N(c2nc(=O)n3c4c(c(-c5ccc(F)cc5F)c(Cl)cc24)OC[C@@H]3CN2C[C@H]3CC[C@@H](C2)N3C)C[C@H]1C [Example 286, (3S)-7-((2S,5R)-4-acryloyl-2,5-dimethylpiperazin-1-yl)-9-chloro-10-(2,4-difluorophenyl)-3-(((1R,5S)-8-methyl-3,8-diazabicyclo[3.2.1]octan-3-yl)methyl)-2H-[1,4]oxazino[2,3,4-ij]quinazolin-5(3H)-one]	91.6%

Next, values leading:

% CAF @ 10 μM,1 h	SMILES
70.1%	C=CC(=O)N1C[C@H](C)N(c2nc(=O)n3c4c(c(-c5ccc(F)cc5F)c(Cl)cc24)OC[C@@H]3CCCO)C[C@H]1C [Example 250, (3S)-7-((2S,5R)-4-acryloyl-2,5-dimethylpiperazin-1-yl)-9-chloro-10-(2,4-difluorophenyl)-3-(3-hydroxypropyl)-2,3-dihydro-5H-[1,4]oxazino[2,3,4-ij]quinazolin-5-one]
67%	C=CC(=O)N1C[C@H](C)N(c2nc(=O)n3c4c(c(-c5ccc(F)cc5F)c(Cl)cc24)OC[C@@H]3CN2CCN(C)CC2=O)C[C@H]1C [Example 274, (3S)-7-((2S,5R)-4-acryloyl-2,5-dimethylpiperazin-1-yl)-9-chloro-10-(2,4-difluorophenyl)-3-((4-methyl-2-oxopiperazin-1-yl)methyl)-2,3-dihydro-5H-[1,4]oxazino[2,3,4-ij]quinazolin-5-one]
82%	C=CC(=O)N1C[C@H](C)N(c2nc(=O)n3c4c(c(-c5ccc(F)cc5F)c(Cl)cc24)OC[C@H]3CN2CCOCC2)C[C@H]1C [Example 204, (3R)-7-((2S,5R)-4-acryloyl-2,5-dimethylpiperazin-1-yl)-9-chloro-10-(2,4-difluorophenyl)-3-(morpholinomethyl)-2H-[1,4]oxazino[2,3,4-ij]quinazolin-5(3H)-one]
90.2%	C=CC(=O)N1C[C@H](C)N(c2nc(=O)n3c4c(c(-c5ccc(F)cc5F)c(Cl)cc24)OC[C@@H]3CCCN2CCN(C)CC2)C[C@H]1C [Example 259, (3S)-7-((2S,5R)-4-acryloyl-2,5-dimethylpiperazin-1-yl)-9-chloro-10-(2,4-difluorophenyl)-3-(3-(4-methylpiperazin-1-yl)propyl)-2,3-dihydro-5H-[1,4]oxazino[2,3,4-ij]quinazolin-5-one]
0%	C=CC(=O)N1C[C@H](C)N(c2nc(=O)n3c4c(c(-c5c(F)ccc6cc[nH]c(=O)c56)ccc24)OCC3)C[C@H]1C [Example 224, 7-((2S,5R)-4-acryloyl-2,5-dimethylpiperazin-1-yl)-10-(7-fluoro-1-oxo-1,2-dihydroisoquinolin-8-yl)-2,3-dihydro-5H-[1,4]oxazino[2,3,4-ij]quinazolin-5-one]
92.4%	C=CC(=O)N1C[C@H](C)N(c2nc(=O)n3c4c(c(-c5ccc(F)cc5F)c(Cl)cc24)OC[C@H]3CCCN2CCN(C)C(=O)C2)C[C@H]1C [Example 283, (3R)-7-((2S,5R)-4-acryloyl-2,5-dimethylpiperazin-1-yl)-9-chloro-10-(2,4-difluorophenyl)-3-(3-(4-methyl-3-oxopiperazin-1-yl)propyl)-2,3-dihydro-5H-[1,4]oxazino[2,3,4-ij]quinazolin-5-one]
0%	C=CC(=O)N1C[C@H](C)N(c2nc(=O)n3c4c(c(-c5c(F)cccc5C(F)F)ccc24)OCC3)C[C@H]1C [Example 200, 7-((2S,5R)-4-acryloyl-2,5-dimethylpiperazin-l-yl)-10-(2-(difluoromethyl)-6-fluorophenyl)-2,3-dihydro-5H-1,4|oxazino[2,3,4-ij]quinazolin-5-one]
13.5%	C=CC(=O)N1CCN(c2nc(=O)n3c4c(c(-c5ccc(F)cc5F)cc(CC#N)c24)OCC3)CC1 [Example 289, 2-(7-(4-acryloylpiperazin-1-yl)-10-(2,4-difluorophenyl)-5-oxo-2,3-dihydro-5H-[1,4]oxazino[2,3,4-ij]quinazolin-8-yl)acetonitrile]
83.9%	C=CC(=O)N1C[C@H](C)N(c2nc(=O)n3c4c(c(-c5ccc(F)cc5F)c(Cl)cc24)OC[C@H]3CC2CCN(CC)CC2)C[C@H]1C [Example 333, (3R)-7-((2S,5R)-4-acryloyl-2,5-dimethylpiperazin-1-yl)-9-chloro-10-(2,4-difluorophenyl)-3-((1-ethylpiperidin-4-yl)methyl)-2H-[1,4]oxazino[2,3,4-ij]quinazolin-5(3H)-one]
